Results reported in US11674136B2, “DNA-templated macrocycle library” (President and Fellows of Harvard College, priority 2018, dated 2023).
“Also recorded” adds a separate entry of the source.

Target: T1, Recombinant human N-His6-IDE42-1019 (Homo sapiens, UniProt P14735)
T1 construct: Recombinant human N-His6-IDE42-1019(R&D Systems); His6 (N); purchased R&D Systems
T1 sequence (P14735 42-1019): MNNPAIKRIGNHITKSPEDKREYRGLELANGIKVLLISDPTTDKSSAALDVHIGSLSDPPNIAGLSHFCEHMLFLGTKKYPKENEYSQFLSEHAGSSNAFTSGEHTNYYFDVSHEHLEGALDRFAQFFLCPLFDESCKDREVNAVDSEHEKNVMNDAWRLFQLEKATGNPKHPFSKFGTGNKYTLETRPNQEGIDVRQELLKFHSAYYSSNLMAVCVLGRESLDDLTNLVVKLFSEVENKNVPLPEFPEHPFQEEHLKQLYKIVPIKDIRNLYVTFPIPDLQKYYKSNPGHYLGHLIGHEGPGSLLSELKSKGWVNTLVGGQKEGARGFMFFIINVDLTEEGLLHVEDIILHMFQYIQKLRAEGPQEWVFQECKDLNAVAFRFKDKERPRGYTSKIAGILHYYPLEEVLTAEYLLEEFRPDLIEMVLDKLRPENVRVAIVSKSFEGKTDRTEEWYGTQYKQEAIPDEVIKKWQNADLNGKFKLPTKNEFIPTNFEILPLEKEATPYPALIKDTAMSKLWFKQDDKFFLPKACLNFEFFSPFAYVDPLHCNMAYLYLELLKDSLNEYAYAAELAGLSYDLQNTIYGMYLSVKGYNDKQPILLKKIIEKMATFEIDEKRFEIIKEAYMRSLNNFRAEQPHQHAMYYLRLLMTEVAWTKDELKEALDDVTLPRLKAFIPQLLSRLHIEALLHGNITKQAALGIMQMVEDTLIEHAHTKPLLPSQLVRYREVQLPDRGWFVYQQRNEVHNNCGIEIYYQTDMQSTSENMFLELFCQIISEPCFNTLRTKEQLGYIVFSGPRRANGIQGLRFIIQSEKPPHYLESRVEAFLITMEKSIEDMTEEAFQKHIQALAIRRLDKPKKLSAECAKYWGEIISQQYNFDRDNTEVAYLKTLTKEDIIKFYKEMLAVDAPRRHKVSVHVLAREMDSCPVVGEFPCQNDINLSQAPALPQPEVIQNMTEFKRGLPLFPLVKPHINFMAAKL
Test: IDE inhibition assay with fluorogenic decapeptide substrate Mca-RPPGFSAFK(Dnp)-OH
Format: biochemical
Details: fluorogenic decapeptide cleavage assay; for IC50: DNA-free macrocycle; for IDE inhibition, potency in words: comparison with reference inhibitors
Procedure: Recombinant human N-His6-IDE42-1019(R&D Systems) was assayed using the fluorophore/quencher-tagged peptide substrate Mca-RPPGFSAFK(Dnp)-OH (R&D) according to the manufacturer's instructions and using the recommended buffer 50 mM Tris, pH 7.5, 1 M NaCl (fluorophore Mca=(7-methoxycourmarin-4-yl)acetyl and quencher Dnp=2,4-dinitrophenyl). The enzyme mixture (48 μL) was transferred to a 96-well plate and combined with 2 μL of inhibitor in DMSO solutions, as 3-fold dilution series. The mixtures were allowed to equilibrate for 5 minutes and the enzymatic reaction was started by addition of substrate peptide in assay buffer (50 μL), immediately mixed by orbital shaking, and monitored on a fluorescence plate reader (excitation at 320 nm, emission at 405 nm). […] Inhibitor 6bK was used as a positive control in each assay, and error bars correspond to the standard error.

Row | IC50 [nM] | Compound | IDE inhibition, potency in words
1 | 50 | CC1NC(=O)C=CC(=O)NC(C(=O)NCCOCCN)Cc2cccc(c2)CNC(=O)C(Cc2ccc(C(=O)c3ccccc3)cc2)NC(=O)C(CC2CCCCC2)NC1=O (stereo not drawn) [trans-DJPM] | equipotent to the structurally similar trans-6bK and trans-6bA macrocycles; also recorded: comparable in potency to our previously optimized 20-membered inhibitor 6bK; also recorded: equipotent to the previously optimized IDE inhibitor 6bK
2 | 40 | NCCOCCNC(=O)C1CCNC(=O)C=CC(=O)NC(Cc2ccccc2C(F)(F)F)C(=O)NC(CC2CCCCC2)C(=O)NC(Cc2ccc(C(=O)c3ccccc3)cc2)C(=O)N1 (stereo not drawn) [cis-DJIR] | equipotent to the structurally similar trans-6bK and trans-6bA macrocycles; also recorded: at least as potent that 6bK
3 | 30000 | NCCOCCNC(=O)C1Cc2ccccc2CNC(=O)CC(Cc2ccccc2)NC(=O)C(Cc2ccco2)NC(=O)CN2CCN(CC2)C(=O)C=CC(=O)N1 (stereo not drawn) [cis-CODVV] | –
